In patent US7893043B2, “2-methylene-(17Z)-17(20)-dehydro-19,21-dinor-vitamin D analogs” (Wisconsin Alumni Research Foundation, priority 2008, dated 2011):
Entries after “also recorded” stand apart in the source; their conditions may differ. Like-named read-outs stand apart in the source and are kept apart here.

Tests used:
[1] = system: HL-60 cells; test: HL-60 differentiation (nitro blue tetrazolium reduction); type: cell-based, human; conditions: differentiation of HL-60 cells into monocytes, FIG. 2, read-out: EC50, HL-60 cell differentiation
Method: The study drugs were dissolved in ethanol and the concentrations determined using UV spectrophotometry. Serial dilutions were prepared so that a range of drug concentrations could be tested without changing the final concentration of ethanol (≦0.2%) present in the cell cultures.
Human promyelocytic leukemia (HL60) cells were grown in RPMI-1640 medium containing 10% fetal bovine serum. The cells were incubated at 37° C. in the presence of 5% CO2.
HL60 cells were plated at 1.2×10^5 cells/ml. Eighteen hours after plating, cells in duplicate were treated with drug. Four days later, the cells were harvested and a nitro blue tetrazolium reduction assay was performed (Collins et al., 1979; J. Exp. Med. 149:969-974). The percentage of differentiated cells was determined by counting a total of 200 cells and recording the number that contained intracellular black-blue formazan deposits. Verification of differentiation to monocytic cells was determined by measuring phagocytic activity (data not shown).

[2] = system: 24-hydroxylase (24Ohase) gene promoter; test: In vitro transcription assay (24-hydroxylase promoter luciferase reporter in ROS 17/2.8 bone cells); type: cell-based; conditions: ROS 17/2.8 cells, FIG. 3, read-out: EC50, transcriptional activity in bone cells
Method: Transcription activity was measured in ROS 17/2.8 (bone) cells that were stably transfected with a 24-hydroxylase (24Ohase) gene promoter upstream of a luciferase reporter gene (Arbour et al., 1998). Cells were given a range of doses. Sixteen hours after dosing the cells were harvested and luciferase activities were measured using a luminometer.
RLU=relative luciferase units.

[3] = system: intestinal calcium transport; test: Intestinal calcium transport, everted gut sac method; type: in vivo, rat; conditions: for intestinal calcium transport: everted gut sac
Method: (§1) Male, weanling Sprague-Dawley rats were placed on Diet 11 (0.47% Ca) diet +AEK oil for one week followed by Diet 11 (0.02% Ca) +AEK oil for 3 weeks. The rats were then switched to a diet containing 0.47% Ca for one week followed by two weeks on a diet containing 0.02% Ca. Dose administration began during the last week on 0.02% calcium diet. Four consecutive ip doses were given approximately 24 hours apart. Twenty-four hours after the last dose, blood was collected from the severed neck and the concentration of serum calcium determined as a measure of bone calcium mobilization. The first 10 cm of the intestine was also collected for intestinal calcium transport analysis using the everted gut sac method.
Intestinal calcium transport was evaluated in the same groups of animals using the everted gut sac method (FIG. 5). […] Thus, it may be concluded that Vit II Z has essentially similar intestinal calcium transport activity at the recommended lower doses to that of 1,25(OH)2D3.

[4] = system: bone calcium mobilization; test: Bone calcium mobilization (serum calcium) in vitamin D-deficient rats; type: in vivo, rat
Method: as §1
Calcium mobilization from bone and intestinal calcium absorption in vitamin D-deficient animals. Using vitamin D-deficient rats on a low calcium diet (0.02%), the activities of Vit II Z and 1,25(OH)2D3 in intestine and bone were tested. As expected, the native hormone (1,25(OH)2D3) increased serum calcium levels at all dosages (FIG. 4).

[5] = biological target: T1, full-length recombinant rat vitamin D receptor (Rattus norvegicus, UniProt P13053); test: Vitamin D receptor binding, competition with [3H]-1,25(OH)2D3; conditions: FIG. 1
T1 construct: Full-length recombinant rat receptor was expressed in E. coli BL21 (DE3) Codon Plus RIL cells; histidine tag (C); made in house; host or cells: E. coli BL21 (DE3) Codon Plus RIL
T1 sequence (P13053 1-423): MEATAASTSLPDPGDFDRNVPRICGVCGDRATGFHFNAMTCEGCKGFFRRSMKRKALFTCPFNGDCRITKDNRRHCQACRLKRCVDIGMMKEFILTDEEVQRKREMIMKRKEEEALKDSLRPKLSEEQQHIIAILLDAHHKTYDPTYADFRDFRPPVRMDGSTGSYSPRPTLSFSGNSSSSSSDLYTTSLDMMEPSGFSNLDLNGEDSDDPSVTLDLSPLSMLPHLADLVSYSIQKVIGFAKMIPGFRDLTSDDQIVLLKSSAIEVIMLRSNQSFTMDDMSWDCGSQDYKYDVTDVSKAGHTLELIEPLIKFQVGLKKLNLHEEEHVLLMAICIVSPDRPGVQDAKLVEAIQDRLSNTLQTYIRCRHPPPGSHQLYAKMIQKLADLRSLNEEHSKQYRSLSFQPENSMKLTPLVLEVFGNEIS
Method: Full-length recombinant rat receptor was expressed in E. coli BL21 (DE3) Codon Plus RIL cells and purified to homogeneity using two different column chromatography systems. The first system was a nickel affinity resin that utilizes the C-terminal histidine tag on this protein. The protein that was eluted from this resin was further purified using ion exchange chromatography (S-Sepharose Fast Flow). Aliquots of the purified protein were quick frozen in liquid nitrogen and stored at −80° C. until use. For use in binding assays, the protein was diluted in TEDK50 (50 mM Tris, 1.5 mM EDTA, pH7.4, 5 mM DTT, 150 mM KCl) with 0.1% Chaps detergent. The receptor protein and ligand concentration were optimized such that no more than 20% of the added radiolabeled ligand was bound to the receptor.
Radiolabeled and unlabeled ligands were added to 100 mcl of the diluted protein at a final ethanol concentration of ≦10%, mixed and incubated overnight on ice to reach binding equilibrium. The following day, 100 mcl of hydroxylapatite slurry (50%) was added to each tube and mixed at 10-minute intervals for 30 minutes. […] After the final wash, the pellets were transferred to scintillation vials containing 4 ml of Biosafe II scintillation cocktail, mixed and placed in a scintillation counter. Total binding was determined from the tubes containing only radiolabeled ligand.

EC50 ([1]; Homo sapiens) [nM] | VDR binding affinity compared to 1,25-(OH)2D3 [5] | Ki ([5]; full-length recombinant rat VDR) [nM] | SMILES | EC50 [1] [nM] | EC50 [2] [nM] | intestinal calcium transport ([3]; at the tested doses) | serum calcium levels ([4]; all dosages, rats on 0.02% Ca diet, FIG. 4) | intestinal calcium transport ([3]; 29 pmol/day) | intestinal calcium transport ([3]; 2340 pmol/day) | intestinal calcium transport activity compared to 1,25(OH)2D3 ([3]; vitamin D-deficient rats, ip, FIG. 5) | bone calcium mobilization activity compared to 1,25(OH)2D3 ([4]; 87 pmol/day and 780 pmol/day for 4 consecutive days, rats on 0.02% Ca diet) | bone calcium mobilization, effect of increasing the dose ([4]; 2340 pmol/day, rats on 0.02% Ca diet) | bone calcium mobilization activity compared to 1,25(OH)2D3 ([4]; vitamin D-deficient rats, ip, FIG. 4)
 |  |  | C=C1/C(=C\C=C2/CCC[C@]3(C)[C@@H]([C@H](C)CCCC(C)(C)O)CC[C@@H]23)C[C@@H](O)C[C@@H]1O [1α,25-dihydroxyvitamin D3, reference compound] | 2 | 0.2 | significant increase | increased |  |  |  |  |  | 
0.08 | nearly the same affinity | 0.2 | C=C1[C@H](O)CC(=C/C=C2\CCC[C@]3(C)/C(=C\CCCC(C)(C)O)CC[C@@H]23)C[C@H]1O [Vit II Z, 2-methylene-(17Z)-17(20)-dehydro-19,21-dinor-1α,25-dihydroxyvitamin D3] |  | 0.03 |  |  | promotes intestinal calcium transport | very significant intestinal calcium transport activity | about the same or equal activity; also recorded: about the same as or equal to | about the same as or equal to | without any substantial additional effect | about the same or equal bone calcium mobilization activity
